Source: patent publication US20250263396A1, “CRYSTALLINE FORMS OF 3-(5-(2-HYDROXY-2- METHYLPROPOXY)-6-METHYPYRAZIN-2-YL)-1H-INDOLE-7-CARBONITRILE” (NIDO BIOSCIENCES, INC., priority 2024, published 2025)
“Also recorded” adds a separate entry of the source.

Legend:
[1] = Equilibration with solvents; type: physicochemical
Description: Obtained suspensions were filtered through a 0.45 μm nylon membrane filter by centrifugation at 14,000 rpm. Solid parts (wet cakes) were investigated by XRPD. For samples with different XRPD patterns, additional analysis including DSC, TGA, ^1H-NMR were performed.
(§1) Obtained suspensions were filtered through a 0.45 μm nylon membrane filter by centrifugation at 14,000 rpm.
as §1

[2] = Exposure to humidity or ambient condition; type: physicochemical
[3] = Wet granulation simulation experiments; type: physicochemical
Description: Water or ethanol was added drop wise to about 10 mg of Form P until the sample is wetted sufficiently. Wet sample was ground gently with in a mortar and a pestle. Post granulation sample was dried under ambient condition for 10 min.
Water or ethanol was added drop wise to about 10 mg of Form C until the sample is wetted sufficiently. Wet sample was ground gently with in a mortar and a pestle. Post granulation sample was dried under ambient condition for 5 min.

[4] = Competitive water activity experiments; details: whole range of water activity (0≤a.w.≤1)
[5] = Dry grinding simulation experiments; type: physicochemical; details: ground manually with mortar and pestle, 5 min
Description: About 10 mg of Form P was ground manually with a mortar and a pestle for 1, 3 and 5 minutes.
About 10 mg of Form C was ground manually with a mortar and a pestle for 5 minutes.

[6] = Form conversion kinetics from Form C to Form P; type: physicochemical
Description: To investigate form conversion kinetics from Form C to Form P, equilibration experiments with Form C in pH 1.2 HCl buffer, 2-MeTHF, heptane and water were conducted. In 2-MeTHF, Form C converted to Form P within 2 h at 25° C. In pH 1.2 HCl buffer, Form C converted to Form P after 31 h at 37° C. In heptane, Form C converted to Form P completely after 1 week at 25° C. In water, Form C converted to Form P completely after 4 days at 25° C.

[7] = Form change on heating, dehydration or desolvation (TGA, DSC, variable temperature XRPD); type: physicochemical; details: DSC thermogram and VT-XRPD
Description: Relative stability of the anhydrates Form R and Form P was investigated by variable temperature XRPD and competitive equilibration experiments.
Relative stability of the anhydrates Form B, Form X, Form Y and Form C was investigated by variable temperature XRPD. Form B converted to Form X, Form Y and Form C after heating to 150° C., 176° C. and 180° C., respectively.

[8] = Competitive equilibration experiments; details: 2-MeTHF
Description: Relative stability of the anhydrate Forms A, C, H and J was investigated with competitive equilibration experiments.
Relative stability of the anhydrates Forms C, K and L was investigated with competitive equilibration experiments.
Relative stability of the anhydrates Form C and Form P was systematically investigated with competitive equilibration experiments.
About 5 mg of Form C and about 5 mg of Form P were added to 0.25 mL of saturated solutions of selected solvents. Obtained suspensions were stirred at 25° C., 50° C. and 70° C. for 4 days, respectively. Solid parts (wet cakes) were isolated by centrifugation filtration and investigated by XRPD.
About 10 mg of Form C and about 10 mg of Form P were added to 0.5 mL saturated solutions of selected solvents. Obtained suspensions were stirred at 80/C and 90 C, respectively. Solid parts (wet cakes) were be isolated by centrifugation filtration and investigated by XRPD.
About 3 mg of the Form P and 3 mg of the mixture of Form P and Form J were added to 0.2 mL of saturated solutions of selected solvents. Obtained suspensions were stirred at 25° C., 50° C. and 70° C. for 4 days, respectively. Solid parts (wet cakes) were isolated by centrifugation filtration and investigated by XRPD.
About 3 mg of Form P and 3 mg of the physical mixture of Form P and Form R were added to 0.2 mL of saturated solutions of 2-MeTHF. Obtained suspensions were stirred at 25° C., 50° C. and 70° C., respectively. Solid parts (wet cakes) were isolated by centrifugation filtration and investigated by XRPD.
About 1.5 mg of Form P, 1.5 mg of Form X and 1.5 mg Form Y were added to 0.15 mL saturated solution of 2-MeTHF. Obtained suspensions were stirred at 25° C., 50° C. and 70° C., respectively. Solid parts (wet cake) were isolated by centrifugation filtration and investigated by XRPD.

[9] = system: LNCaP cells expressing ARR2PB-FireflyLuc and CMV-RenillaLuc; experiment: LNCaP ARR2PB-FireflyLuc reporter assay; type: cell-based; details: Homo sapiens, +/−0.5 nM DHT, 48 h at 37° C.
Description: LNCaP cells expressing ARR2PB-FireflyLuc and CMV-RenillaLuc were treated with indicated concentrations of the test compound, enzalutamide (negative control), or DHT (positive control)+/−0.5 nM DHT for 48 h at 37° C. […] signals were read with the ImageXpress Micro Confocal System. Remaining activity (antagonist mode) was calculated as % Remaining Activity=100×[(Readsample−LCave)/(HCave−LCave)] where HC is cells treated with 0.5 nM DHT only and LC is cells treated with 10 uM enzalutamide+0.5 nM DHT. Activation (agonist mode) was calculated as % Activation=100×[(ReadSample−LCave)/(HCave−LCave)] where HC is cells treated with 1 uM DHT and LC is cells treated with DMSO. Dose response curves and IC50 values were calculated using non-linear regression analysis in XLfit.

In the case of `Cc1nc(-c2c[nH]c3c(C#N)cccc23)cnc1OCC(C)(C)O` [Amorphous form, 3-(5-(2-hydroxy-2-methylpropoxy)-6-methylpyrazin-2-yl)-1H-indole-7-carbonitrile], the XRPD after equilibration ([1]; 2-MeTHF, 25° C.) is reported as “Form P”, the XRPD after equilibration ([1]; 2-MeTHF/heptane (v:v = 1:1), 25° C.) is reported as “Form P” and the XRPD after equilibration ([1]; 2-MeTHF/heptane (v:v = 3:1), 25° C.) is reported as “Form P”. The XRPD after equilibration ([1]; 2-Propanol, 25° C.) was “Form P”, the XRPD after equilibration ([1]; Acetone, 25° C.) was “Form P” and the XRPD after equilibration ([1]; Acetone/water (v:v = 30:70) a.w. = 0.92, 25° C.) was “Form P”. For the same molecule, the XRPD after equilibration ([1]; Acetonitrile, 25° C.) was “Form P”, the XRPD after equilibration ([1]; DMSO/water (v:v = 40:60) a.w. = 0.77, 25° C.) was “Form P” and the XRPD after equilibration ([1]; Ethanol, 25° C.) was “Form P”. The XRPD after equilibration ([1]; Ethanol/water (v:v = 40:60) a.w. = 0.91, 25° C.) was “Form P”, the XRPD after equilibration ([1]; Ethyl acetate, 25° C.) was “Form P” and the XRPD after equilibration ([1]; Isopropyl acetate, 25° C.) was “Form P”. For the same molecule, the XRPD after equilibration ([1]; MEK, 25° C.) was “Form P”, the XRPD after equilibration ([1]; MTBE, 25° C.) was “Form P” and the XRPD after equilibration ([1]; Methanol, 25° C.) was “Form B”. The XRPD after equilibration ([1]; THF, 25° C.) was “Form I”, the XRPD after equilibration ([1]; Toluene, 25° C.) was “Form C” and the XRPD after equilibration ([1]; heptane, 25° C.) was “Form C”. For the same molecule, the XRPD after equilibration ([1]; pH 1.2 HCl/KCl buffer, 25° C.) was “Form P”, the XRPD after equilibration ([1]; water, 25° C.) was “Form P” and the “Form after humidity exposure” value ([2]; exposure to high humidity) was “crystallized to Form N”.
With `Cc1nc(-c2c[nH]c3c(C#N)cccc23)cnc1OCC(C)(C)O` [Form C, 3-(5-(2-hydroxy-2-methylpropoxy)-6-methylpyrazin-2-yl)-1H-indole-7-carbonitrile] the “Comments (crystallinity)” value ([3]; granulation solvent Ethanol) was “Crystallinity decreased”, the XRPD ([3]; granulation solvent Ethanol) was “Form C” and the “Comments (crystallinity)” value ([3]; granulation solvent Water) was “Crystallinity decreased slightly”. For the same molecule, the XRPD ([3]; granulation solvent Water) was “Form C”, the “Relative stability in water activity experiments” value [4] was “stable” and the “Comments (crystallinity)” value [5] was “Crystallinity decreased slightly”. For the same molecule, the XRPD [5] was “Form C”, the “Time to conversion to Form P” value ([6]; 2-MeTHF, 25° C.) was at most 2 h and the “Time to complete conversion to Form P” value ([6]; heptane, 25° C.) was 1 week. For the same molecule, the “Time to conversion to Form P” value ([6]; pH 1.2 HCl buffer, 37° C.) was 31 h and the “Time to complete conversion to Form P” value ([6]; water, 25° C.) was 4 days.
For `Cc1nc(-c2c[nH]c3c(C#N)cccc23)cnc1OCC(C)(C)O` [Form K, 3-(5-(2-hydroxy-2-methylpropoxy)-6-methylpyrazin-2-yl)-1H-indole-7-carbonitrile], the “Form after humidity exposure” value ([2]; 25° C./92% RH for 6 days) was “reverts back to Form B; also recorded: converts to hydrate Form B” and the “Form after melting and re-crystallization” value [7] was “converts to Form L”.
With `Cc1nc(-c2c[nH]c3c(C#N)cccc23)cnc1OCC(C)(C)O` [3-(5-(2-hydroxy-2-methylpropoxy)-6-methylpyrazin-2-yl)-1H-indole-7-carbonitrile] the “XRPD after competitive equilibration” value ([8]; 25° C. for 3 days) was “Form P”, the “XRPD after competitive equilibration” value ([8]; 50° C. for 3 days) was “Form P” and the “XRPD after competitive equilibration” value ([8]; 70° C. for 1 week) was “Form P”. For the same molecule, the “XRPD after competitive equilibration” value ([8]; 70° C. for 3 days) was “Form P + one peak” and the IC50 [9] was 0.05 µM.
For `Cc1nc(-c2c[nH]c3c(C#N)cccc23)cnc1OCC(C)(C)O` [Form V, 3-(5-(2-hydroxy-2-methylpropoxy)-6-methylpyrazin-2-yl)-1H-indole-7-carbonitrile], the “Time to conversion to Form W” value ([2]; ambient condition (20° C.-27° C., 50% RH-70% RH)) was at most 12 h.
